# Data: patent US12564582B2 (Prilenia Neurotherapeutics Ltd., priority 2016, dated 2026)
# Where two headings read alike, the source gives them in different places.
# Experiments:
# [1] = test system: patients with Huntington's disease; conditions: 45 mg b.i.d, pooled MermaiHD, HART and Pride-HD, BL dystonia ≥4
# [2] = test system: patients with Huntington's disease; conditions: for Δ to placebo, change from baseline in UHDRS TMS Gait and Balances: Week 52; for Δ to placebo, change from baseline in UHDRS TMS Gait and Balance: BL TFC≥7
# Text: • CIBIC-Plus global score as compared to baseline • Change from baseline in the PDS score • Change from baseline in UHDRS FA • CGIC as compared to baseline • Change from baseline in UHDRS TFC • Change from baseline in UHDRS IS Global/Functional Scales: • Change from baseline in HD QOL • Change from baseline in Walk-12 scale TMS Subscores: • Change from baseline in hand movement score (defined as the sum of UHDRS domains finger taps, pronate-supinate hands and luria [fist-hand-palm test]) • Change from baseline in Gait and balance score (defined as the sum of UHDRS domains gait, tandem walking and retropulsion pull test) • Change from baseline in UHDRS mMS (defined as the sum of UHDRS domains dysarthria, tongue protrusion, finger taps, pronate-supinate hands, luria, rigidity, bradykinesia, gait, tandem walking, retropulsion pull test) • Change from baseline in UHDRS Chorea • Change from baseline in UHDRS Dystonia • Responders, defined as patients with UHDRS TMS change from baseline≤0 Other Motor Assessments: • Change from baseline in Q Motor measurements including digitomotography (speeded index finger tapping), dysdiadochomotography (pronation/supination hand tapping), manumotography and choreomotography (grip force and chorea analysis) and pedomotography (speeded foot tapping) • Change from baseline in the TUG test Cognitive/Psychiatric Assessments: • Change from baseline in HD-CAB brief: SDMT, Emotion Recognition, Trail Making Test, HVLT-R, Paced Tapping at 3 Hz, OTS. • Change from baseline in PBA-s Safety Variables and Endpoints
# The gait and balance score is defined as the sum of UHDRS domains gait, tandem walking and retropulsion pull test.
# [3] = test system: human patients afflicted with dystonia; conditions: periodic (daily or twice daily) oral administration
# [4] = test system: patients with Huntington's disease; conditions: after 26 weeks of treatment
# Text: The TFC scale of the UHDRS is a standardized scale used to assess 5 functional domains associated with disability shown below (occupation, finances, domestic chores (e.g. laundry, washing dishes), activities of daily living, and care level).
# [5] = test system: patients with Huntington's disease
# Description: The study also compared data from all patients to those obtained in HD subpopulations.
# The primary efficacy variable and endpoint for this study was change from baseline in the UHDRS TMS (defined as the sum of all UHDRS motor domains ratings) at Week 26 or Week 52. The primary measure of motor impairment is the UHDRS motor assessment section, which was administered by a trained examiner. The first part of the motor assessment consisted of five TMS subscores, provided below. The sum total of all the 31 items is referred to as the Total Motor Score (TMS). The secondary efficacy variable and endpoint was change from baseline in the mPPT at Week 26 or Week 52. The TMS scale includes measurement of dystonia.
# It is a research tool which has been developed to provide a uniform assessment of the clinical features and course of HD. The TMS component of UHDRS comprises 31 assessments from the 15 items of the UHDRS, with each assessment rated on a 5-point scale from 0 (normal) to 4 (maximally abnormal).
# The change from baseline in UHDRS-TMS was analyzed using a Repeated Measures model (SAS® MIXED procedure with REPEATED sub-command). The model includes the following fixed effects: categorical week in study by treatment interaction, center, neuroleptic use or no use, and baseline UHDRS-TMS score. The unstructured covariance matrix for repeated observations within patients was used.
# [6] = test system: patients with Huntington's disease; remark: listed apart in the source
# Description: These variables were analyzed in the same way as the primary efficacy endpoint except that the variable evaluation at baseline were included in the model instead of baseline UHDRS-TMS.
# [7] = 45 mg bid, Week 26, Stage 1 BL TFC 11-13
# [8] = 45 mg bid, Week 52, Stage 1 BL TFC 11-13
# [9] = 67.5 mg bid, Week 26, Stage 1 BL TFC 11-13
# [10] = 67.5 mg bid, Week 52, Stage 1 BL TFC 11-13
# [11] = 90 mg bid, Week 26, Stage 1 BL TFC 11-13
# [12] = 90 mg bid, Week 52, Stage 1 BL TFC 11-13
# [13] = 112.5 mg bid, Week 26, Stage 1 BL TFC 11-13
# [14] = 112.5 mg bid, Week 52, Stage 1 BL TFC 11-13
# [15] = 45 mg bid, Week 52, all pridopidine treated patients
# [16] = 67.5 mg bid, Week 52, all pridopidine treated patients
# [17] = 90 mg bid, Week 52, all pridopidine treated patients
# [18] = 112.5 mg bid, Week 52, all pridopidine treated patients
compound,measurement,setting,value
"CCCN1CCC(c2cccc(S(C)(=O)=O)c2)CC1 [pridopidine, 4-[3-(methylsulfonyl)phenyl]-1-propyl-piperidine]",UHDRS Dystonia score compared to placebo,[1]; Week 26,statistically significant improvement
same,UHDRS Dystonia score compared to placebo,[1]; Week 52,trend toward this improvement was maintained
same,"Δ to placebo, change from baseline in UHDRS TMS Gait and Balances","[2]; 45 mg bid, Stage 1 BL TFC 11-13",−0.94
same,"Δ to placebo, change from baseline in UHDRS TMS Gait and Balances","[2]; 45 mg bid, all pridopidine treated patients",−0.09
same,"Δ to placebo, change from baseline in UHDRS TMS Gait and Balance","[2]; 45 mg bid, week 26",−0.48
same,"Δ to placebo, change from baseline in UHDRS TMS Gait and Balance","[2]; 45 mg bid, week 52",−0.41
same,"Δ to placebo, change from baseline in UHDRS TMS Gait and Balances","[2]; 67.5 mg bid, Stage 1 BL TFC 11-13",−0.53
same,"Δ to placebo, change from baseline in UHDRS TMS Gait and Balances","[2]; 67.5 mg bid, all pridopidine treated patients",−0.05
same,"Δ to placebo, change from baseline in UHDRS TMS Gait and Balance","[2]; 67.5 mg bid, week 26",−0.37
same,"Δ to placebo, change from baseline in UHDRS TMS Gait and Balance","[2]; 67.5 mg bid, week 52",−0.43
same,"Δ to placebo, change from baseline in UHDRS TMS Gait and Balances","[2]; 90 mg bid, Stage 1 BL TFC 11-13",−0.49
same,"Δ to placebo, change from baseline in UHDRS TMS Gait and Balances","[2]; 90 mg bid, all pridopidine treated patients",−0.01
same,"Δ to placebo, change from baseline in UHDRS TMS Gait and Balance","[2]; 90 mg bid, week 26",−0.62
same,"Δ to placebo, change from baseline in UHDRS TMS Gait and Balance","[2]; 90 mg bid, week 52",−0.28
same,"Δ to placebo, change from baseline in UHDRS TMS Gait and Balances","[2]; 112.5 mg bid, Stage 1 BL TFC 11-13",−0.4
same,"Δ to placebo, change from baseline in UHDRS TMS Gait and Balances","[2]; 112.5 mg bid, all pridopidine treated patients",0.04
same,"Δ to placebo, change from baseline in UHDRS TMS Gait and Balance","[2]; 112.5 mg bid, week 26",−0.49
same,"Δ to placebo, change from baseline in UHDRS TMS Gait and Balance","[2]; 112.5 mg bid, week 52",−0.09
same,dystonia in afflicted patients,[3],effective to reduce dystonia
same,Total Functional Capacity (TFC),[4],trends favoring pridopidine
same,UHDRS-TMS change from baseline over time,"[5]; 45 mg bid, HD1 patients, after 52 weeks",improvement in TMS score
same,"Δ to placebo, change from baseline in UHDRS TMS","[5]; 45 mg bid, Week 26, ALL",1.42
same,"Δ to placebo, change from baseline in UHDRS TMS",[5]; [7],−4.47
same,"Δ to placebo, change from baseline in UHDRS TMS","[5]; 45 mg bid, Week 52, ALL",0.59
same,"Wk 52 Δ to placebo, change from baseline in UHDRS TMS",[5]; [8],−5.32
same,TMS change from baseline vs historical placebo,"[5]; 45 mg bid, historical placebo in HART and MermaiHD",significant
same,"Δ to placebo, change from baseline in UHDRS TMS","[5]; 67.5 mg bid, Week 26, ALL",1.71
same,"Δ to placebo, change from baseline in UHDRS TMS",[5]; [9],−3
same,"Δ to placebo, change from baseline in UHDRS TMS","[5]; 67.5 mg bid, Week 52, ALL",2.55
same,"Wk 52 Δ to placebo, change from baseline in UHDRS TMS",[5]; [10],−0.84
same,"Δ to placebo, change from baseline in UHDRS TMS","[5]; 90 mg bid, Week 26, ALL",0.67
same,UHDRS TMS score at week 26 compared to baseline,"[5]; 90 mg bid, Week 26, BL TFC 11-13, read from FIG. 8b",about −8
same,"Δ to placebo, change from baseline in UHDRS TMS",[5]; [11],−6.15
same,"Δ to placebo, change from baseline in UHDRS TMS","[5]; 90 mg bid, Week 52, ALL",1.78
same,"Wk 52 Δ to placebo, change from baseline in UHDRS TMS",[5]; [12],−7.1
same,"Total Motor Score (TMS) change from baseline, treatment effect","[5]; 90 mg bid, compared with other doses",largest treatment effect
same,TMS change from baseline vs historical placebo,"[5]; 90 mg bid, historical placebo in HART and MermaiHD",significant
same,"Total Motor Score (TMS) change from baseline, difference vs historical placebo","[5]; 90 mg bid, week 26, historical placebo in HART and MermaiHD",~6.5 TMS point
same,"Δ to placebo, change from baseline in UHDRS TMS","[5]; 112.5 mg bid, Week 26, ALL",2.1
same,"Δ to placebo, change from baseline in UHDRS TMS",[5]; [13],−4.79
same,"Δ to placebo, change from baseline in UHDRS TMS","[5]; 112.5 mg bid, Week 52, ALL",2.71
same,"Wk 52 Δ to placebo, change from baseline in UHDRS TMS",[5]; [14],−0.92
same,"Δ to placebo, change from baseline in UHDRS TMS Excluding Dystonia","[6]; 45 mg bid, Week 26, ALL",1.39
same,"Δ to placebo, change from baseline in UHDRS TMS Involuntary Movements","[6]; 45 mg bid, Week 26, ALL",0.89
same,"Δ to placebo, change from baseline in UHDRS TMS Excluding Dystonia",[6]; [7],−3.6
same,"Δ to placebo, change from baseline in UHDRS TMS Involuntary Movements",[6]; [7],−2.49
same,"Δ to placebo, change from baseline in UHDRS TMS Excluding Chorea",[6]; [8],−4.09
same,"Δ to placebo, change from baseline in UHDRS TMS Involuntary Movements",[6]; [8],−2.73
same,"Δ to placebo, change from baseline in UHDRS TMS Excluding Chorea",[6]; [15],0.05
same,"Δ to placebo, change from baseline in UHDRS TMS Involuntary Movements",[6]; [15],0.02
same,"Δ to placebo, change from baseline in UHDRS TMS Excluding Dystonia","[6]; 67.5 mg bid, Week 26, ALL",1.97
same,"Δ to placebo, change from baseline in UHDRS TMS Involuntary Movements","[6]; 67.5 mg bid, Week 26, ALL",0.48
same,"Δ to placebo, change from baseline in UHDRS TMS Excluding Dystonia",[6]; [9],−2.2
same,"Δ to placebo, change from baseline in UHDRS TMS Involuntary Movements",[6]; [9],−3.07
same,"Δ to placebo, change from baseline in UHDRS TMS Excluding Chorea",[6]; [10],−0.18
same,"Δ to placebo, change from baseline in UHDRS TMS Involuntary Movements",[6]; [10],−0.2
same,"Δ to placebo, change from baseline in UHDRS TMS Excluding Chorea",[6]; [16],1.31
same,"Δ to placebo, change from baseline in UHDRS TMS Involuntary Movements",[6]; [16],0.8
same,"Δ to placebo, change from baseline in UHDRS TMS Excluding Dystonia","[6]; 90 mg bid, Week 26, ALL",1.2
same,"Δ to placebo, change from baseline in UHDRS TMS Involuntary Movements","[6]; 90 mg bid, Week 26, ALL",0.01
same,"Δ to placebo, change from baseline in UHDRS TMS Excluding Dystonia",[6]; [11],−4.35
same,"Δ to placebo, change from baseline in UHDRS TMS Involuntary Movements",[6]; [11],−4
same,"Δ to placebo, change from baseline in UHDRS TMS Excluding Chorea",[6]; [12],−4.92
same,"Δ to placebo, change from baseline in UHDRS TMS Involuntary Movements",[6]; [12],−3.8
same,"Δ to placebo, change from baseline in UHDRS TMS Excluding Chorea",[6]; [17],1.67
same,"Δ to placebo, change from baseline in UHDRS TMS Involuntary Movements",[6]; [17],−0.26
same,"Δ to placebo, change from baseline in UHDRS TMS Excluding Dystonia","[6]; 112.5 mg bid, Week 26, ALL",2.4
same,"Δ to placebo, change from baseline in UHDRS TMS Involuntary Movements","[6]; 112.5 mg bid, Week 26, ALL",0.76
same,"Δ to placebo, change from baseline in UHDRS TMS Excluding Dystonia",[6]; [13],−4.31
same,"Δ to placebo, change from baseline in UHDRS TMS Involuntary Movements",[6]; [13],−1.64
same,"Δ to placebo, change from baseline in UHDRS TMS Excluding Chorea",[6]; [14],−1.59
same,"Δ to placebo, change from baseline in UHDRS TMS Involuntary Movements",[6]; [14],0.8
same,"Δ to placebo, change from baseline in UHDRS TMS Excluding Chorea",[6]; [18],1.94
same,"Δ to placebo, change from baseline in UHDRS TMS Involuntary Movements",[6]; [18],0.57
